Assay results taken from patent US20140205553A1, “AGENT FOR ENHANCING THE EFFECT OF SKIN-WHITENING INGREDIENTS AND USES THEREOF” (Hayashibara Co., Ltd., priority 2010, published 2014).
Read-outs that look alike come from different tables or passages of the source.

System: mouse B16 melanoma cells
Assay: Melanin formation by mouse B16 melanoma cells cultured with test samples (melanin content, absorbance 450 nm)
Format: cell-based
Protocol: The effect of nucleic-acid-related compounds on melanin-formation inhibition was evaluated by using mouse B16 melanoma cells frequently used as an index for evaluating skin-whitening agents used in external dermatological agents. Since nucleic-acid-related compounds are roughly classified into purine and pyrimidine compounds, the following respective representative compounds were used as test samples. […] Thereafter, cells were collected after adding trypsin-EDTA to each well and subjecting the resultant to centrifugation. The collected cells were washed once with Dulbecco's PBS (-) (abbreviated as “D-PBS”, hereinafter) and centrifuged to remove the supernatant. To the remaining cell pellet was added 0.5 ml of 1N sodium hydroxide to solubilize the cells. The resulting alkali-solubilized solution was boiled for 30 min and determined for melanin content by the following method. […] Each of these wells was assayed for melanin content similarly as above. […] In this and the following experiments, it means that the lower the melanin formation percentage, the higher the melanin-formation inhibitory effect, i.e., the skin-whitening effect.

[1] = test sample 1 μM in liquid culture medium, 5 days, negative control = 100
[2] = test sample 5 μM in liquid culture medium, 5 days, negative control = 100
[3] = Experiment 1, test sample 10 μM
[4] = Mus musculus, B16, 120 h, molar ratio guanine:adenine or equol 0:1, total concentration 5 μM, read-out: Melanin formation percentage
[5] = Mus musculus, B16, 120 h, test sample 2.5 μM in liquid culture medium, 5 days, negative control = 100, read-out: Melanin formation percentage
[6] = Mus musculus, B16, 120 h, test sample 5 μM in liquid culture medium, 5 days, negative control = 100, read-out: Melanin formation percentage
[7] = Mus musculus, B16, 120 h, test sample 10 μM in liquid culture medium, 5 days, negative control = 100, read-out: Melanin formation percentage
[8] = Mus musculus, B16, 120 h, test sample 20 μM in liquid culture medium, 5 days, negative control = 100, read-out: Melanin formation percentage
[9] = Experiment 2, test sample 5 μM alone
[10] = Mus musculus, B16, 120 h, test sample 1 μM in liquid culture medium, 5 days, negative control = 100, read-out: Melanin formation percentage
[11] = test sample 10 μM in liquid culture medium, 5 days, negative control = 100
[12] = test sample 20 μM in liquid culture medium, 5 days, negative control = 100

OC[C@H]1O[C@H](Oc2ccc([C@H]3COc4cc(O)ccc4C3)cc2)[C@H](O)[C@@H](O)[C@@H]1O [4′-Glucosyl-S-equol, 4′-O-α-D-glycopyranosyl-S-equol]
Melanin formation percentage [1]: 85%
Melanin formation percentage [2]: 74%

OC[C@H]1O[C@H](Oc2ccc3c(c2)OC[C@H](c2ccc(O)cc2)C3)[C@H](O)[C@@H](O)[C@@H]1O [7-Glucosyl-S-equol, 7-O-α-D-glycopyranosyl-S-equol]
Melanin formation percentage [1]: 85%
Melanin formation percentage [2]: 75%

Nc1ncnc2nc[nH]c12 [Adenine]
Melanin-formation inhibition (in words) [3]: inhibited
activity at 5 µM [4]: 83%
activity at 2.5 µM [5]: 95%
activity at 5 µM [6]: 83%
activity at 10 µM [7]: 60%
activity at 20 µM [8]: 39%

Nc1ncnc2c1ncn2[C@@H]1O[C@H](COP(=O)(O)OP(=O)(O)O)[C@@H](O)[C@H]1O [Adenosine 5′-diphosphate, adenosine 5′-diphosphate]
activity at 5 µM [6]: 93%
activity at 10 µM [7]: 81%
activity at 20 µM [8]: 51%

Nc1ncnc2c1ncn2[C@@H]1O[C@H](COP(=O)(O)O)[C@@H](O)[C@H]1O [Adenosine 5′-monophosphate, adenosine 5′-monophosphate]
activity at 2.5 µM [5]: 97%
activity at 5 µM [6]: 100%
activity at 10 µM [7]: 82%
activity at 20 µM [8]: 60%

Nc1ncnc2c1ncn2[C@@H]1O[C@H](COP(=O)(O)OP(=O)(O)OP(=O)(O)O)[C@@H](O)[C@H]1O [Adenosine 5′-triphosphate, adenosine 5′-triphosphate]
activity at 5 µM [6]: 93%
activity at 10 µM [7]: 80%
activity at 20 µM [8]: 53%

Nc1ncnc2c1ncn2[C@@H]1O[C@H](CO)[C@@H](O)[C@H]1O [Adenosine, adenosine]
activity at 2.5 µM [5]: 98%
activity at 5 µM [6]: 94%
activity at 10 µM [7]: 71%
activity at 20 µM [8]: 48%

Nc1cc[nH]c(=O)n1 [Cytosine, reference compound]
Melanin-formation inhibition (in words) [3]: no melanin-formation inhibition was observed
Melanin-formation inhibition (in words) [9]: No melanin-formation inhibition was found
activity at 5 µM [6]: 98%
activity at 10 µM [7]: 100%

Oc1ccc([C@H]2COc3cc(O)ccc3C2)cc1 [Equol, equol]
activity at 5 µM [4]: 91%
activity at 1 µM [10]: 91%
activity at 5 µM [6]: 67%
Enhancement of the skin-whitening (melanin-formation-inhibitory) action in combination (in words) (skin-whitening ingredient together with guanine including derivatives or other nucleic-acid-related compound): enhanced

Nc1nc2nc[nH]c2c(=O)[nH]1 [Guanine]
Melanin-formation inhibition (in words) [3]: no melanin-formation inhibition was observed
Melanin-formation inhibition (in words) [9]: No melanin-formation inhibition was found
activity at 5 µM (Mus musculus, B16, 120 h, read-out: Melanin formation percentage, molar ratio guanine:adenine or equol 1:0, total concentration 5 μM): 98%
activity at 1 µM (Mus musculus, B16, 120 h, read-out: Melanin formation percentage, test sample 1 μM in liquid culture medium, 5 days, negative control = 100): 100%
activity at 2.5 µM (Mus musculus, B16, 120 h, read-out: Melanin formation percentage, test sample 2.5 μM in liquid culture medium, 5 days, negative control = 100): 99%
activity at 5 µM (Mus musculus, B16, 120 h, read-out: Melanin formation percentage, test sample 5 μM in liquid culture medium, 5 days, negative control = 100): 98%
activity at 10 µM (Mus musculus, B16, 120 h, read-out: Melanin formation percentage, test sample 10 μM in liquid culture medium, 5 days, negative control = 100): 98%
activity at 20 µM (Mus musculus, B16, 120 h, read-out: Melanin formation percentage, test sample 20 μM in liquid culture medium, 5 days, negative control = 100): 101%

Nc1nc2c(ncn2[C@@H]2O[C@H](COP(=O)(O)OP(=O)(O)O)[C@@H](O)[C@H]2O)c(=O)[nH]1 [Guanosine 5′-diphosphate, guanosine 5′-diphosphate]
activity at 5 µM [6]: 93%
activity at 10 µM [7]: 100%
activity at 20 µM [8]: 95%

Nc1nc2c(ncn2[C@@H]2O[C@H](COP(=O)(O)O)[C@@H](O)[C@H]2O)c(=O)[nH]1 [Guanosine 5′-monophosphate, guanosine 5′-monophosphate]
activity at 1 µM [10]: 99%
activity at 2.5 µM [5]: 99%
activity at 5 µM [6]: 100%
activity at 10 µM [7]: 101%
activity at 20 µM [8]: 101%

Nc1nc2c(ncn2[C@@H]2O[C@H](COP(=O)(O)OP(=O)(O)OP(=O)(O)O)[C@@H](O)[C@H]2O)c(=O)[nH]1 [Guanosine 5′-triphosphate, guanosine 5′-triuphosphate]
Melanin formation percentage [2]: 95%
Melanin formation percentage [11]: 98%
Melanin formation percentage [12]: 97%

Nc1nc2c(ncn2[C@@H]2O[C@H](CO)[C@@H](O)[C@H]2O)c(=O)[nH]1 [Guanosine, guanosine]
activity at 1 µM [10]: 99%
activity at 2.5 µM [5]: 98%
activity at 5 µM [6]: 98%
activity at 10 µM [7]: 102%
activity at 20 µM [8]: 97%

O=c1[nH]cnc2nc[nH]c12 [Hypoxanthine, reference compound]
Melanin-formation inhibition (in words) [3]: no melanin-formation inhibition was observed
Melanin-formation inhibition (in words) [9]: No melanin-formation inhibition was found
activity at 5 µM [6]: 97%
activity at 10 µM [7]: 97%

OC[C@H]1O[C@@H](n2cnc3c(O)ncnc32)[C@H](O)[C@@H]1O [Inosine, reference compound]
Melanin-formation inhibition (in words) [3]: no melanin-formation inhibition was observed
Melanin-formation inhibition (in words) [9]: No melanin-formation inhibition was found
activity at 5 µM [6]: 98%
activity at 10 µM [7]: 96%

O=c1cc(CO)occ1O [Kojic acid, reference compound]
activity at 500 µM (Mus musculus, B16, 120 h, test sample 500 μM in liquid culture medium, 5 days, negative control = 100, read-out: Melanin formation percentage): 71%
activity at 1000 µM (Mus musculus, B16, 120 h, test sample 1000 μM in liquid culture medium, 5 days, negative control = 100, read-out: Melanin formation percentage): 49%
activity at 2000 µM (Mus musculus, B16, 120 h, test sample 2000 μM in liquid culture medium, 5 days, negative control = 100, read-out: Melanin formation percentage): 30%
Melanin-formation-inhibitory action of the test sample alone (in words) (at the concentrations used in the experiment): inhibited the melanin formation by mouse B16 melanoma cells in a concentration dependent manner

Oc1ccc([C@@H]2COc3cc(O)ccc3C2)cc1 [R-Equol, R-equol]
Melanin formation percentage [1]: 94%
Melanin formation percentage [2]: 77%

Oc1ccc([C@H]2COc3cc(O)ccc3C2)cc1 [S-Equol, S-equol]
Melanin formation percentage [1]: 86%
Melanin formation percentage [2]: 60%

Cc1c[nH]c(=O)[nH]c1=O [Thymine, reference compound]
Melanin-formation inhibition (in words) [3]: no melanin-formation inhibition was observed
Melanin-formation inhibition (in words) [9]: No melanin-formation inhibition was found
activity at 5 µM [6]: 99%
activity at 10 µM [7]: 97%

O=c1cc[nH]c(=O)[nH]1 [Uracil, reference compound]
Melanin-formation inhibition (in words) [3]: no melanin-formation inhibition was observed
Melanin-formation inhibition (in words) [9]: No melanin-formation inhibition was found
activity at 5 µM [6]: 98%
activity at 10 µM [7]: 99%

O=c1[nH]c(=O)c2[nH]cnc2[nH]1 [Xanthine, reference compound]
Melanin-formation inhibition (in words) [3]: no melanin-formation inhibition was observed
Melanin-formation inhibition (in words) [9]: No melanin-formation inhibition was found
activity at 5 µM [6]: 100%
activity at 10 µM [7]: 100%

glucosyladenosine
Melanin formation percentage [2]: 89%
Melanin formation percentage [11]: 63%
Melanin formation percentage [12]: 43%

glucosylguanosine
Melanin formation percentage [1]: 99%
Melanin formation percentage (test sample 2.5 μM in liquid culture medium, 5 days, negative control = 100): 98%
Melanin formation percentage [2]: 98%
Melanin formation percentage [11]: 99%
Melanin formation percentage [12]: 99%
